Activity calls are given as the source filed them.
Experiments:
[1] = target: Nuclear receptor subfamily 5 group A member 2 (Homo sapiens, UniProt O00482); assay type: functional, cell-based;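 also: HEK293T cells transfected with LRH-1 and a StAR promoter luciferase reporter; potency for inhibitors that lower LRH-1 driven reporter light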
Fatty acid synthase [2] = target: T1, Fatty acid synthase (Homo sapiens, UniProt P49327); test: inhibition of human FAS-TE enzyme activity – biochemical, endpoint fluorescence intensity, uHTS hits, dose response (AID 624327); assay type: functional;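 also: fluorescence from hydrolysis of an O-methyl fluorescein acyl ester substrate by the enzyme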
T1 sequence (P49327 whole entry): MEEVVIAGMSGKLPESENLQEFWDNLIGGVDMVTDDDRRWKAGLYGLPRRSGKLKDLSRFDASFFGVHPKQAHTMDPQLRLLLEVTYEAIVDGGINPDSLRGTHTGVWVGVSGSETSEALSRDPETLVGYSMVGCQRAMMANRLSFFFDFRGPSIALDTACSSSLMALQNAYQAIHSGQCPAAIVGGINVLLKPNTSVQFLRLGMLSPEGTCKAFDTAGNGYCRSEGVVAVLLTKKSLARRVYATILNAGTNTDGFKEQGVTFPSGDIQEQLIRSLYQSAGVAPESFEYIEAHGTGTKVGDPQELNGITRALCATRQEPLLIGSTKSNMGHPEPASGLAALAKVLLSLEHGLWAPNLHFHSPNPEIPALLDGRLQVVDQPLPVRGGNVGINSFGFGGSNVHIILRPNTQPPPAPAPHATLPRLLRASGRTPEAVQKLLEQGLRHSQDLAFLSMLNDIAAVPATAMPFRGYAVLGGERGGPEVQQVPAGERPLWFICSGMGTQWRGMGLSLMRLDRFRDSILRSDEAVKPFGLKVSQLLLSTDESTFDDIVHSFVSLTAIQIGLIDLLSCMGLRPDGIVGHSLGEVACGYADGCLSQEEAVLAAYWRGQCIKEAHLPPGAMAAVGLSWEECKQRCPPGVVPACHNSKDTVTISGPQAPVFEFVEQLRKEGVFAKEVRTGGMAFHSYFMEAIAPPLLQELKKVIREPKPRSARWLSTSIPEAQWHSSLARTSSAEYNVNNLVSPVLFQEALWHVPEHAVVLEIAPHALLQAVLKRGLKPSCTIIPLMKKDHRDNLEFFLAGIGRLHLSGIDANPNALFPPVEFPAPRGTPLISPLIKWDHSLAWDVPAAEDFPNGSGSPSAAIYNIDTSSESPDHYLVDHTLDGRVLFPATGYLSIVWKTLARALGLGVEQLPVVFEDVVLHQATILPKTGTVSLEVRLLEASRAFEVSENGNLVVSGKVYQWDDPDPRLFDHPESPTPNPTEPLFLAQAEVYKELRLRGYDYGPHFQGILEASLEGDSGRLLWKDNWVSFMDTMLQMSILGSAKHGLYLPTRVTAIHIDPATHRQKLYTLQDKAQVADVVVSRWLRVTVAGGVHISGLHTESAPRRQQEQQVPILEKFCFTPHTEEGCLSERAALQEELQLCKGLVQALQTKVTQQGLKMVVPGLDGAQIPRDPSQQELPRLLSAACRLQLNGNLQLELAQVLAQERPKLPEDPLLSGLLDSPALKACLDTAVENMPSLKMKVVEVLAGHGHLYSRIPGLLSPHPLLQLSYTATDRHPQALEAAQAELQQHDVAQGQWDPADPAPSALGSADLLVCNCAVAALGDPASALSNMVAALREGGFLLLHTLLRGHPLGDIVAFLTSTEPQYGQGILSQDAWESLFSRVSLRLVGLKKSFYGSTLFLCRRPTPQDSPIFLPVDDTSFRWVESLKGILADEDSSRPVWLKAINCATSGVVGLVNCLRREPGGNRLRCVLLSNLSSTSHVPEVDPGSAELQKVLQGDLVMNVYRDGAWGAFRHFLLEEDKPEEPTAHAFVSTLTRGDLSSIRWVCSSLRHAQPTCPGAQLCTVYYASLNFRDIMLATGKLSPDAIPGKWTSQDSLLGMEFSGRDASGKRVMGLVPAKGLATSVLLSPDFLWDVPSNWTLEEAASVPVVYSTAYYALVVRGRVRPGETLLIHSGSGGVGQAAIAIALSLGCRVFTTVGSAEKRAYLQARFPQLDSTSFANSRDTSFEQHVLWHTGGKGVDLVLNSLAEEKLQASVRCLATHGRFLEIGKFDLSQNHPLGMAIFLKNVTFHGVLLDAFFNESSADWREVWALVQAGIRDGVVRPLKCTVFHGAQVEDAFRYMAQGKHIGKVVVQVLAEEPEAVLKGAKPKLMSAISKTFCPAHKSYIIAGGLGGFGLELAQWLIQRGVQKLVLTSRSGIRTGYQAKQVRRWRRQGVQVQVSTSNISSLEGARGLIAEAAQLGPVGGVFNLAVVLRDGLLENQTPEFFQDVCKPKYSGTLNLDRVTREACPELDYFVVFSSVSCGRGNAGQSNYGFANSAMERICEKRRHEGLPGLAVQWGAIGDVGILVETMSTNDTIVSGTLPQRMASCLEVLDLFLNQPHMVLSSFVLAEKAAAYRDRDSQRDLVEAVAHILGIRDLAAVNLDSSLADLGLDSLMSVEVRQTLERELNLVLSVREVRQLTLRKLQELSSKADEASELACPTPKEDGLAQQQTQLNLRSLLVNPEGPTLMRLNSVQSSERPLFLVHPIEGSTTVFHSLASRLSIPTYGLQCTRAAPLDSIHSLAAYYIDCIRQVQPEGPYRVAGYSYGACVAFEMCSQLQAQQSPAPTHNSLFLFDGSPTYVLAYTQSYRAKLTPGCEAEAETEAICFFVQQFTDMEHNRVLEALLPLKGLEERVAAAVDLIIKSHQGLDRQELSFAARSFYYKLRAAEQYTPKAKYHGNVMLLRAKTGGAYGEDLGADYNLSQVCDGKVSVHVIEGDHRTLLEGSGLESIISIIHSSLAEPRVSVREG

Steroidogenic factor 1 = Steroidogenic factor 1 (Homo sapiens, UniProt Q13285); test: Counterscreen for inverse agonists of the liver receptor homolog-1 (LRH-1; NR5A2): Luminescence-based cell-based high throughput dose response assay to identify inverse agonists of the Steroidogenic Factor 1 Nuclear Receptor (SF1; NR5A1).; assay type: functional
Chain of Steroidogenic factor 1 (Q13285 whole entry): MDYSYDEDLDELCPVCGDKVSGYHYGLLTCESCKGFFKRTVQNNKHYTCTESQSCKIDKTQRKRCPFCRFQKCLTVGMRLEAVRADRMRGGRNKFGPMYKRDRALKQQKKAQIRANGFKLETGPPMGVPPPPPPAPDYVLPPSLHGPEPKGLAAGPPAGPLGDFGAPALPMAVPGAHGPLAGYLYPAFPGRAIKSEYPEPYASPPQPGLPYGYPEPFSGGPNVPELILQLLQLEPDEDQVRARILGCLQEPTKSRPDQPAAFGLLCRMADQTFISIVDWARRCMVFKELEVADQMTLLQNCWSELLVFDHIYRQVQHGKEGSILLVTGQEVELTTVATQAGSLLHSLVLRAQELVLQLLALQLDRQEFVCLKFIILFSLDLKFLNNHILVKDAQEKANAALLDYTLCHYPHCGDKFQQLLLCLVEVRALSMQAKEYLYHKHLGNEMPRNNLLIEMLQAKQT

Fatty acid synthase [3] = target: T1, Fatty acid synthase; test: inhibition of human FAS-TE enzyme activity – biochemical, kinetic fluorescence intensity, dose response (AID 624326); assay type: functional;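 also: rate of fluorescence rise from hydrolysis of a fluorogenic O-methyl fluorescein ester substrate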
[4] = nonselective StAR promoter luciferase inhibitors – cell-based, luminescence, luciferase reporter, counter-screen for LRH-1 inverse agonist project, dose response (AID 651969); assay type: functional
[5] = target: T2, Adenosylmethionine-8-amino-7-oxononanoate aminotransferase (Mycobacterium tuberculosis, UniProt P9WQ81); test: Mycobacterium tuberculosis BioA enzyme inhibitor Measured in Biochemical System Using Plate Reader - 2163-02_Inhibitor_Dose_CherryPick_Activity.; assay type: functional, Mycobacterium tuberculosis UT205
T2 sequence (P9WQ81 whole entry): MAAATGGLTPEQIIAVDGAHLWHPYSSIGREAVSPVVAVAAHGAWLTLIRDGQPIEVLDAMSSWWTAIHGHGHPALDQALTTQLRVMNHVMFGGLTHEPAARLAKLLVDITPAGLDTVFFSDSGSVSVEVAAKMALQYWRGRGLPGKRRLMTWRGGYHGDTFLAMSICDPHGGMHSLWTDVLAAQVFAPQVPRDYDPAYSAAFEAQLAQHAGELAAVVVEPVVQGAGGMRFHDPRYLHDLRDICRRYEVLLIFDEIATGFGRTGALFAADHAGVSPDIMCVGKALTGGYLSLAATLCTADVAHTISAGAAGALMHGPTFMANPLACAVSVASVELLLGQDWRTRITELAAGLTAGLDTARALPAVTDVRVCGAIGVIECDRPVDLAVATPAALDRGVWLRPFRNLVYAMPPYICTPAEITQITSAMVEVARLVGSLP

[6] = target: T3, Rac GTPase-activating protein 1 (Homo sapiens, UniProt Q9H0H5); test: blockers of MgcRacGAP-driven Rac1 GTP hydrolysis – biochemical, ADP Hunter fluorescence, primary and confirmatory, confirmation (AID 624330); assay type: functional
T3 sequence (Q9H0H5 whole entry): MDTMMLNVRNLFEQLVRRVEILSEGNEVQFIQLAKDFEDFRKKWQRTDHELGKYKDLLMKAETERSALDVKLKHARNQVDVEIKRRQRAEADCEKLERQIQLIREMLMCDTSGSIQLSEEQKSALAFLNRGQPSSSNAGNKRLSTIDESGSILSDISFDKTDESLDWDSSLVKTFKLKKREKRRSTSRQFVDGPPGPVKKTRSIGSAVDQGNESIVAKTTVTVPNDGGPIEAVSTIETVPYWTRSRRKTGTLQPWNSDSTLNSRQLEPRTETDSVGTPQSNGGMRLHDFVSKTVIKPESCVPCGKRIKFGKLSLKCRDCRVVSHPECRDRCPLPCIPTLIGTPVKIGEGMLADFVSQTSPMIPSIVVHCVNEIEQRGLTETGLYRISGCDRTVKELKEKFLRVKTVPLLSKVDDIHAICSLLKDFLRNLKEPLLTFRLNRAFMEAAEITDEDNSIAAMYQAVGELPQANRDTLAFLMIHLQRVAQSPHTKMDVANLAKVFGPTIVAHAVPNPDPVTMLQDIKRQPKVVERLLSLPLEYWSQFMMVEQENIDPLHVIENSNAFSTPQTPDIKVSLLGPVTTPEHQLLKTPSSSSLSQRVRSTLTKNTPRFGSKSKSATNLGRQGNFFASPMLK

[7] = target: T4, DNA repair protein RAD52 homolog (Homo sapiens, UniProt P43351); assay type: functional, biochemical
T4 sequence (P43351 whole entry): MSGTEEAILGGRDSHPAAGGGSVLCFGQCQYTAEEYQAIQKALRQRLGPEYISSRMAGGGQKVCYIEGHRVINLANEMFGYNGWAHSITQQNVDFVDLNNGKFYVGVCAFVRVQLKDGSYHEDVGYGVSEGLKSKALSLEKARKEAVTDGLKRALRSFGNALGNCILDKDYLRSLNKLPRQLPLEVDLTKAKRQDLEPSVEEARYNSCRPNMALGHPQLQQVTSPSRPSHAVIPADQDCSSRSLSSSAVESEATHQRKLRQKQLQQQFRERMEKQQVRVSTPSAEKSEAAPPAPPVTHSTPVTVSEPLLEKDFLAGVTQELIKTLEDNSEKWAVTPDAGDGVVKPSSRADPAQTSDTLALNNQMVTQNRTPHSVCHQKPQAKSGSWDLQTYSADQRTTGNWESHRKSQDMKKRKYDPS

[8] = viability loss in HeLa cells – cytotoxicity control for MgcRacGAP inhibitor project, dose response (AID 624300); assay type: functional
Nonstructural protein 1 = Nonstructural protein 1 (Influenza A virus, UniProt Q194T2); assay type: functional, Influenza A virus (A/California/07/2009(H1N1))
Chain of Nonstructural protein 1 (Q194T2 whole entry): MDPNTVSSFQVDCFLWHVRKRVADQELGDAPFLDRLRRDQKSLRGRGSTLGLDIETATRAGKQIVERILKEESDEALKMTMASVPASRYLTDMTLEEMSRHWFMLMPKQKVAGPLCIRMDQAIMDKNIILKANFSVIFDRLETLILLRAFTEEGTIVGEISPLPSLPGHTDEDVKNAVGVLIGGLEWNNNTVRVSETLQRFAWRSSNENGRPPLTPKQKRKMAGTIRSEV

[9] = target: T5, Short transient receptor potential channel 4 (Mus musculus, UniProt Q9QUQ5); test: block of DAMGO-driven TRPC4 calcium entry – cell-based, HEK293 TRPC4/mu-opioid, Fluo-4 calcium, dose response (AID 434942); assay type: functional;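 also: potency of inhibitors blocking the TRPC4 calcium response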
T5 sequence (Q9QUQ5 whole entry): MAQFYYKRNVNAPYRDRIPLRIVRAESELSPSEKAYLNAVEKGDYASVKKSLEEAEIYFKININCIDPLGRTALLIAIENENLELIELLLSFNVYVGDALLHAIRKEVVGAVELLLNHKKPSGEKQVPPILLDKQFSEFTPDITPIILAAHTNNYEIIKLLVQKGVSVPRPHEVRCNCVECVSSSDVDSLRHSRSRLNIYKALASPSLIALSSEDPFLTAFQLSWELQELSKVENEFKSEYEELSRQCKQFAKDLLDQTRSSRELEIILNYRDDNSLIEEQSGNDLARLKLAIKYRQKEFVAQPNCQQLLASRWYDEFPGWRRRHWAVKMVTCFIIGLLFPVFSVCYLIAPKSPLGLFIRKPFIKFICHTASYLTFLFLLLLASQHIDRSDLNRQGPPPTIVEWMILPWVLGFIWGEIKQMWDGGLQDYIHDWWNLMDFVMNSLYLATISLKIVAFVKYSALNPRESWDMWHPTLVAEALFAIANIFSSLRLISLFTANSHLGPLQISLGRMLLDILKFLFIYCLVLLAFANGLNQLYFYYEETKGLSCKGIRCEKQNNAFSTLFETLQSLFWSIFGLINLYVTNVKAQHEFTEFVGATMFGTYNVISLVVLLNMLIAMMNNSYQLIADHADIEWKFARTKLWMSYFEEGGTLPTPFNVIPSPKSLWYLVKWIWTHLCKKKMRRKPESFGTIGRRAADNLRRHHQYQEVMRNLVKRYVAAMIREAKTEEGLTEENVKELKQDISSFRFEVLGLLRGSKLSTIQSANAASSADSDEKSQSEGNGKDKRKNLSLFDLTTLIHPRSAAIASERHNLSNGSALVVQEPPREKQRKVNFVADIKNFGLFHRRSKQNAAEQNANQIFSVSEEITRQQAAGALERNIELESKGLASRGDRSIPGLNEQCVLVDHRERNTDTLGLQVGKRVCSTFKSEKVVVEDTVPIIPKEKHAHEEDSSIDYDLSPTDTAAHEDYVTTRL

Protein Wnt-3a = Protein Wnt-3a (Mus musculus, UniProt P27467); test: antagonism of Wnt3a pathway luciferase reporter – Wnt-LIGHT cells, luminescence, selectivity assay for Gli-SUFU antagonist project, dose response (AID 651570); assay type: functional; settings: read-out: IC50_Mean;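 also: Wnt-LIGHT reporter cells stimulated with conditioned medium from Wnt3a-producing cells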
Chain of Protein Wnt-3a (P27467 whole entry): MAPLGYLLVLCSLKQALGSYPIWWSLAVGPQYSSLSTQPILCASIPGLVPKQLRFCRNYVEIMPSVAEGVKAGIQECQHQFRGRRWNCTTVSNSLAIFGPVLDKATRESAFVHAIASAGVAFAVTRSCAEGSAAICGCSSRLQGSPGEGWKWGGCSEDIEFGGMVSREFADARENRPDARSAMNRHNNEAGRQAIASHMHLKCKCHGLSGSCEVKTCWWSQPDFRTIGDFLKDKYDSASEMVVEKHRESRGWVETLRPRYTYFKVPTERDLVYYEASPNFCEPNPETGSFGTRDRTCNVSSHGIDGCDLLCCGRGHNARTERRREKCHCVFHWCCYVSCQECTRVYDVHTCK

[10] = target: T6, Small ubiquitin-related modifier 1 (Homo sapiens, UniProt P63165); test: SUMO1 protein interaction blockers, potency – biochemical, fluorescence polarization, uHTS hits, dose response (AID 624382); assay type: functional; settings: read-out: IC50_Mean
T6 sequence (P63165 whole entry): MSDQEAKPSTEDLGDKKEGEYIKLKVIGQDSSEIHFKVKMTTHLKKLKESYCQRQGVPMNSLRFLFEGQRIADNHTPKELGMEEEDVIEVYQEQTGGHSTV

[11] = target: T6, Small ubiquitin-related modifier 1; test: SUMO1 protein-protein binding blockers, potency – biochemical, FRET, dose response (AID 624383); assay type: functional; settings: read-out: IC50_Mean
cells [12] = assay type: functional, cell-based
cells [13] = assay type: functional, cell-based; remark: listed apart in the source
[14] = target: T7, Trace amine-associated receptor 1 (Homo sapiens, UniProt Q96RJ0); test: Counterscreen for agonists of the human trace amine associated receptor 1 (hTAAR1): Fluorescence-based cell-based high throughput dose response assay to identify hTAAR1 agonist that also desensitize TAAR1 receptor response.; assay type: functional
T7 sequence (Q96RJ0 whole entry): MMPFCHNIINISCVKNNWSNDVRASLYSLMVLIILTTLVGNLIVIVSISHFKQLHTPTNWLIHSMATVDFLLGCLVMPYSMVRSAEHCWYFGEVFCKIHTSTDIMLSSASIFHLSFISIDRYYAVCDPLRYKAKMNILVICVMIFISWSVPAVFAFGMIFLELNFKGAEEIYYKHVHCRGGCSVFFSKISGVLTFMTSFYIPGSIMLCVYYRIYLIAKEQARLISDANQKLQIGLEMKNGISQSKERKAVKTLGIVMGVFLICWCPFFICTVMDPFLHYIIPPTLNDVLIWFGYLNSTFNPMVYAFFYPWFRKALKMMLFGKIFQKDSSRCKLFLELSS

[15] = target: T7, Trace amine-associated receptor 1; test: Fluorescence-based cell-based high throughput dose response assay to identify agonists of the human trace amine associated receptor 1 (TAAR1).; assay type: functional
Prothrombin = Prothrombin (Homo sapiens, UniProt P00734); test: Thrombin 1536 HTS Dose Response Confirmation. [Related pubchem assays: 1046 (Thrombin 1536 HTS; hits were confirmed in this assay)]; assay type: functional
cells [16] = assay type: functional, cell-based; remark: listed apart in the source
[17] = target: T8, Nuclear receptor subfamily 0 group B member 1 (Homo sapiens, UniProt P51843); assay type: functional, cell-based;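 also: HEK293T cells transfected with SF-1 and DAX-1 plus StAR promoter luciferase reporter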
T8 sequence (P51843 whole entry): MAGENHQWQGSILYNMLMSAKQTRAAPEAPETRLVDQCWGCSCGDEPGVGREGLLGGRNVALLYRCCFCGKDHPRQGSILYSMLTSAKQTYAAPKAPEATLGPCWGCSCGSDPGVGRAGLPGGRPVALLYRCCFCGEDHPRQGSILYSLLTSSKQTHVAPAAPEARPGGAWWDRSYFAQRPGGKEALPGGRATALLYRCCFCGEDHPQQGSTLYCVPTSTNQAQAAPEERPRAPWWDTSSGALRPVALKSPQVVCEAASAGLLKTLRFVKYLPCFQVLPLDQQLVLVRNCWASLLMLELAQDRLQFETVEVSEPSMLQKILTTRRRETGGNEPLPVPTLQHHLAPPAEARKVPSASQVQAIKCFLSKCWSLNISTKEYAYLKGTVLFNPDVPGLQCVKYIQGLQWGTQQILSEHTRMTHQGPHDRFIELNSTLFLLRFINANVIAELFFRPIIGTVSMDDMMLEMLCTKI

Chain of Nuclear receptor subfamily 5 group A member 2 (O00482 whole entry): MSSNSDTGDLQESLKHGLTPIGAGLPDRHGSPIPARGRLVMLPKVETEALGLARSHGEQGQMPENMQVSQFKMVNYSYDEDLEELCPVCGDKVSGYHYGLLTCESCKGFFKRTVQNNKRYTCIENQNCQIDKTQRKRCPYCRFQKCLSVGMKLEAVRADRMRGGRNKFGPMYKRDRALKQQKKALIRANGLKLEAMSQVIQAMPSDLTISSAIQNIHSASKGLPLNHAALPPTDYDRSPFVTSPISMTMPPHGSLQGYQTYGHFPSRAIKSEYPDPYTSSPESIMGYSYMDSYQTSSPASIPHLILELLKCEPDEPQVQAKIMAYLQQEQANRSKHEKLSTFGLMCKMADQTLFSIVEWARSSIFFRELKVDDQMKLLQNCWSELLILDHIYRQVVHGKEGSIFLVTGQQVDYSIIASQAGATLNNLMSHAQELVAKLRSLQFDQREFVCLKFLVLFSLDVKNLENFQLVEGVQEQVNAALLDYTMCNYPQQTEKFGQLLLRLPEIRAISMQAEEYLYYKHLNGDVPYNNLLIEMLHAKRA

SMILES: O=C(Nc1ccc(Cc2ccncc2)cc1)c1cccc([N+](=O)[O-])c1
- IC50 [1]: 35.9 µM (inactive)
- IC50 (Fatty acid synthase [2]): 7.76 µM (active)
- IC50 (Steroidogenic factor 1): 1.33 µM (active)
- IC50 (Fatty acid synthase [3]): 10.5 µM (active)
- IC50 [4]: 35.9 µM (inactive)

SMILES: O=C(C1CCCN(S(=O)(=O)c2cccnc2)C1)N1CCn2c1nc1ccccc12 (stereo not drawn)
- AC50 [5]: 14 µM (active)

SMILES: CC1(C(=O)NCc2ccc(F)c(F)c2)Cc2c(-c3cccc(C(N)=O)c3)ccnc2O1 (stereo not drawn)
- AC50 [5]: 0.498 µM (active)

SMILES: CCN(CC)CCNc1ccc(C)c2sc3ccc(O)cc3c(=O)c12
- IC50 [6]: 21.8 µM (active)
- AC50 [7]: 655 nM (active)
- CC50 [8]: 31 µM (active)
- IC50 (Nonstructural protein 1): 19.7 µM (active)

SMILES: CNc1nc(NCc2ccccc2)c2ccccc2n1
- EC50 [9]: 1.19 µM (active)
- IC50 (Protein Wnt-3a): 43.1 µM (inactive)

SMILES: Cc1ccc(Cn2c(CCNc3nc(-c4ccc(C)cc4)cs3)nc3cc(C(=O)NCCCO)ccc32)cc1
- IC50 [10]: > 66.6 µM (inactive)
- IC50 [11]: 9.43 µM (active)

SMILES: CCOc1cccc(-c2c(C(=O)N/N=C/c3ccc(C)o3)nnn2-c2nonc2N)c1
- IC50 (cells [12]): > 29.9 µM (inactive)
- EC50 (cells [13]): 19.4 µM (inactive)
- IC50 [14]: 17.2 µM (inactive)
- EC50 [15]: 3.78 µM (active)

SMILES: COc1ccc(C2c3c(-c4cc(Cl)c(C)cc4O)n[nH]c3C(=O)N2Cc2cccnc2)cc1OC (stereo not drawn)
- IC50 (Prothrombin): > 50 µM (not active)
- AC50 [5]: 0.102 µM (active)

SMILES: CCc1cc(=O)oc2c(C)c(OCC(=O)NCCCN3CCOCC3)ccc12
- IC50 [1]: 35.9 µM (inactive)
- IC50 (Steroidogenic factor 1): 35.9 µM (inactive)
- IC50 [4]: 35.9 µM (inactive)

SMILES: CN1CCN(C(=O)c2cc(COc3ccccc3)on2)[C@@H](c2ccccc2)C1
- IC50 (cells [16]): > 67.6 µM (inactive)
- IC50 [17]: > 67.6 µM (inactive)

SMILES: CCCN1CCN(C(=O)C2CCN(c3nnc(C)c4c(C)n(-c5ccc(C)cc5)nc34)CC2)CC1
- AC50 [5]: 12.3 µM (active)

SMILES: CC(=O)c1cccc(-c2ccnc3c2CC(C(=O)NCc2ccccc2)O3)c1 (stereo not drawn)
- IC50 (cells [16]): > 67.4 µM (inactive)
- IC50 [17]: > 67.4 µM (inactive)

SMILES: COc1cc(/C=C2\C(=O)N(C)C(=S)N2C)ccc1O
- IC50 [6]: 31.9 µM (active)
- CC50 [8]: 100 µM (active)

SMILES: COc1cc(C(=O)c2cc3c(cc2C)OCO3)cc(OC)c1OC
- IC50 (cells [16]): > 67.5 µM (inactive)
- IC50 [17]: > 67.5 µM (inactive)

SMILES: CC(O)(c1cccnc1)c1nc(-c2cccc(C#N)c2)cs1 (stereo not drawn)
- IC50 [1]: 35.9 µM (inactive)
- IC50 (Steroidogenic factor 1): 15.7 µM (inactive)
- IC50 [4]: 35.9 µM (inactive)

SMILES: COc1ccc(C(CNC(=O)c2ccc(Cl)c(NC(=O)c3cccs3)c2)N2CCCC2)cc1 (stereo not drawn)
- IC50 (cells [16]): > 67.5 µM (inactive)
- IC50 [17]: > 67.5 µM (inactive)
